Experiments:
human 5-HT5A receptor = target: T1, human 5-HT5A receptor (Homo sapiens, UniProt P47898); assay: Test of human 5-HT5A receptor binding inhibition ([3H]5-CT, HEK293 cell membrane); conditions: [3H]5-CT binding, membrane of HEK293 cell expressing human 5-HT5A receptor
T1 construct: expressed in transfected cells; membrane preparation
Procedure: An ORF of a human 5-HT5A receptor (Genbank AF498985) was cloned from a human hippocampal cDNA library, and then inserted into a pCR2.1 vector (Invitrogen), and Escherichia coli having the plasmid was mass cultured. Next, the human 5-HT5A receptor full-length cDNA sequence was analyzed, recombined into a pCDNA3.1 vector (Invitrogen) as an expression vector, and mass cultured. A human embryonic kidney-induced cell HEK293 cell (ATCC) was seeded, and the resulting expression plasmid (1 μg) above was added thereto together with LIPOFECTAMINE 2000 (Invitrogen; 2 μl), a gene was introduced into the HEK293 cell, and then Geneticin (G418 sulfate 500 μg/ml; Kanto Chemical Co., Inc.) was used as a drug-resistant marker to screen the expressing cell. Thus prepared gene-expressing recombinant cell was cultured in a D-MEM, 10% FCS, 1% Pc./Sm., 500 μg/ml G418 culture medium for 3 days. This experimental operation was conducted in accordance with a gene operation experiment manual of a known method (Sambrook, J. et al, Molecular Cloning-A Laboratory Manual“, Cold Spring Harabor Laboratory, NY, 1989), etc., an instruction appended in a reagent or the like.
(1) Preparation of a Membrane from an HEK293 Cell Forcibly Expressing a Human 5-HT5A Receptor
An HEK293 cell forcibly expressing a human 5-HT5A receptor was cultured in an F500 plate, and scraped for collection using a scraper. After centrifugation, the precipitates were collected and an incubation buffer (50 mM Tris (HCl) PH 7.4, 10 mM Mg504, 0.5 mM EDTA) was added thereto. After homogenization, it was further centrifuged, an incubation buffer was added to the precipitate, and the mixture was well suspended. These operations were repeatedly conducted, the protein concentration was then measured, and the preparation of a membrane was completed.
(2) Experiment on Human 5-HT5A Receptor Binding Inhibition
The compound to be tested (0.3 to 300 nM) and a 100 μM 5-CT solution in DMSO were added to a 96-well plate at 2 μl/well. The number of the wells to be measured under the same condition in one experiment was set at 2, and an average value thereof was used. It was suspended in an incubation buffer, and a HEK293 cell membrane forcibly expressing a human 5-HT5A receptor that had been prepared at 200 μg/ml was added thereto at 100 μl/well. The mixture was incubated at room temperature for 15 minutes, and a [^3H]5-CT solution (2 nM [^3H]5-CT, an incubation buffer) was then added thereto at 100 μl/well.
Separate from this, 100 μl of the solution was dispersed to a liquid scintillation vial, 2 ml of Aquasol II (registered trademark) was added thereto, followed by stirring, and the radioactivity was then measured with a liquid scintillation counter. The solution was incubated at 37° C. for 60 minutes. The reaction liquid was sucked to a 96-well GF/C filter plate that had been preliminarily treated with 0.2% polyethyleneimine, and washed six times with an ice-cooled 50 mM Tris (pH 7.5) buffer. The GF/C filter plate was dried.
MicroscintTMPS (registered trademark) was added thereto at 40 μl/well. The radioactivity remaining on the GF/C filter plate was measured in a top counter.
For the inhibitory activity for the binding of the [^3H]5-CT by the compound to be tested in each experiment, IC50 value was calculated by taking the radioactivity when only DMSO was added as 0% inhibition, and the radioactivity when 1 μM 5-CT was added as 100% inhibition. Apart from this, a Ki value was calculated from the Kd value of the [^3H]5-CT that had been determined by Scatchard analysis.
Ki=IC50 (1+Concentration of the ligands added/Kd (4.95 nM))

[1] = test system: scopolamine-induced spontaneous alternation behavior disorder; assay: Scopolamine-induced spontaneous alternation behavior disorder in mice (Y-maze); format: in vivo; conditions: mouse, scopolamine 0.5 mg/kg i.p.
Procedure: An Improvement Effect for Scopolamine-Induced or MK-801-Induced Spontaneous Alternation Behavior in Mice
An improvement effect of the compound (I) for cognitive impairment was evaluated by the above-described well-known test method as a model of a short-term learning disorder.
Species: Male ddY mice/number of animals (number of animals per group): 6 to 10 animals per group
A mouse was introduced into the laboratory 1 hour before starting the test. The mouse was placed at one end of an arm in a Y-maze having equal lengths of arms in three directions, and was able freely explored for 8 minutes with the number of the entries into the arms were counted. Furthermore, a spontaneous alternation behavior was defined as consecutive entries into each of the three arms, and an alternation rate was defined as the percentage of the number of time of this behavior relative to the total number of the entries, and calculated by the following equation.
Alternation rate (%)=(number of spontaneous alternation behaviors/total number of entries−2)×100.
The compound to be tested was orally administered 50 minutes before the initiation of the test, and 30 minutes later, 0.5 mg/kg of scopolamine or 0.15 mg/kg of MK-801 (in the normal group, physiological saline) was intraperitoneally administered. Furthermore, for the normal group (the group administered with physiological saline) and the control group (the group administered with 0.5 mg/kg scopolamine or 0.15 mg/kg MK-801), a solvent (vehicle) was orally administered when the compound to be tested was administered. For the normal group, physiological saline was intraperitoneally administered when scopolamine was administered.
The alternation rate (%) is expressed as an average value in each group (mean±SE). In regard to the alternation rate (%), in the case where a significant difference between the normal group and the control group (Student's T test) was found, it was considered that there was an establishment of learning disorder by the administration of scopolamine or MK-801. By carrying out the Dunnett evaluation for the group administered with the compound to be tested relative to the control group, the presence or absence of the learning disorder action of the compound to be tested was determined. In each evaluation, it was considered that there was a tendency at p<0.10, and there was a significant difference at p<0.05.

MAP-induced overactivity = assay: MAP (methane phetamine)-induced overactivity in mice, kinetic momentum by infrared sensor; format: in vivo; conditions: mouse, oral, dose 0.01 mg/kg; MAP 1 mg/kg i.p.; total 60 minutes, P<0.05
Procedure: (§1) Evaluation of Various Drugs Relative to a Drug for Increasing the Kinetic Momentum of Mice (Methane Phetamine, MK-801) (Method for Measuring a Kinetic Momentum by Discharge of an Infrared Ray)
(§2) The effect of improving the positive symptoms and the negative symptoms of schizophrenia by the compound (I) was evaluated by measuring the kinetic momentum that had been […] with administration of the compound in a model causing the symptoms by methane phetamine (which is hereinafter simply referred to as MAP) and MK-801.
(§3) Species: Male ICR mouse/number of animals (number of animals per group): 8 to 12 animals per group
(§4) The animal was left in a laboratory for 1 hour or longer to be acclimated to the environment, and the animal was taken from the feeding cage, orally administered with a compound to be tested, and then returned to the feeding cage. After 30 minutes, it was put into a cage for measurement, and the kinetic momentum of just the compound to be tested was measured. Further, after 30 minutes, the animal was taken out, and intraperitoneally administered with a drug for increasing kinetic momentum (MAP; 1 mg/kg or MK-801; 0.3 mg/kg, all dissolved in physiological saline), and its kinetic momentum was measured for a certain time (60 minutes) using a device for measuring the kinetic momentum by means of an infrared ray sensor (CompACT AMS, Muromachi Kikai Co., Ltd.). Also, the test was carried out under non-fasting.
(§5) The 60 minutes of measurements was classified into three groups: a first half 30 minutes, a second half 30 minutes, and a total 60 minutes. For a normal mouse (a mouse administered with physiological saline) and a mouse administered with the drug for increasing kinetic momentum, a Student's T test was used for evaluation in each interval. For the group administered with the compound to be tested, a solvent (vehicle) group and a Dunnett's T test were carried out and evaluated. For the evaluation, in case where there was a significant (P<0.05) difference for the total 60 minutes, it was considered to be effective.

[2] = test system: MK-801-induced overactivity; assay: MK-801-induced overactivity in mice, kinetic momentum by infrared sensor; format: in vivo; conditions: mouse, oral, MK-801 0.3 mg/kg i.p.
Procedure: as §1, §2, §3, §4, §5

[3] = dose 0.01 mg/kg, total 60 minutes, P<0.05

T1 sequence (P47898 whole entry): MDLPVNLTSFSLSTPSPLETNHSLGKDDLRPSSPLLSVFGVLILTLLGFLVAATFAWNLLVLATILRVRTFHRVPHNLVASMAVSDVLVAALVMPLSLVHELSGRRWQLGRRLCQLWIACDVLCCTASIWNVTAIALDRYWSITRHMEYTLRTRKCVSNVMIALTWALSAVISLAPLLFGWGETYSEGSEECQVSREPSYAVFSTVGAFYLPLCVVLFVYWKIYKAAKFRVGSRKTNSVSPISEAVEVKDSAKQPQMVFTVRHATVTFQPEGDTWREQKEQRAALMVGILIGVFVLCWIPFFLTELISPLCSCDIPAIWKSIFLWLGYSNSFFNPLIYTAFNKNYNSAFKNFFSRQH

Row | SMILES | Ki (human 5-HT5A receptor) [nM] | inhibition of MAP-induced overactivity (MAP-induced overactivity) | inhibition of MK-801-induced overactivity [2, 3] | other results
1 | CC(=O)n1c2ccccc2c2ccc(C(=O)N=C(N)N)cc21 [Example 26] | ≤ 50 | – | – | inhibition of scopolamine-induced spontaneous alternation behavior disorder ([1]; oral, dose 0.03 mg/kg): significantly inhibited
2 | NC(N)=NC(=O)c1ccc2c3c(F)cccc3n(C3CCOCC3)c2c1 [Example 86] | 0.56 | significantly inhibited | significantly inhibited | inhibition of scopolamine-induced spontaneous alternation behavior disorder ([1]; oral, dose 0.0001 mg/kg): significantly inhibited
3 | NC(N)=NC(=O)c1ccc2c3ccccc3n(Cc3cccs3)c2c1 [Example 135] | ≤ 50 | significantly inhibited | significantly inhibited | inhibition of scopolamine-induced spontaneous alternation behavior disorder ([1]; oral, dose 0.003 mg/kg): significantly inhibited
4 | Cc1cc(C(=O)N=C(N)N)cc2c1c1ccccc1n2C1CCOCC1 [Example 106] | 0.27 | significantly inhibited | – | inhibition of MK-801-induced overactivity ([2]; dose 0.03 mg/kg): significantly inhibited; inhibition of scopolamine-induced spontaneous alternation behavior disorder ([1]; oral, dose 0.0001 mg/kg): significantly inhibited
5 | NC(N)=NC(=O)c1ccc2c3ccccc3n(C3CCC(F)(F)CC3)c2c1 [Example 129] | ≤ 50 | – | – | inhibition of MK-801-induced overactivity ([2]; dose 0.1 mg/kg): significantly inhibited
6 | Cl.Cl.NC(N)=NC(=O)c1ccc2c3ccccc3n(C3CCNCC3)c2c1 [Example 6, N-(diaminomethylene)-9-piperidin-4-yl-9H-carbazole-2-carboxamide dihydrochloride] | ≤ 50 | significantly inhibited | significantly inhibited | inhibition of scopolamine-induced spontaneous alternation behavior disorder ([1]; oral, dose 0.003 mg/kg): significantly inhibited
7 | NC(N)=NC(=O)c1cc(Cl)c2c3ccccc3n(C3CCOCC3)c2c1 [Example 150] | ≤ 50 | – | – | inhibition of MK-801-induced overactivity ([2]; dose 0.1 mg/kg): significantly inhibited
8 | Cc1cc(C(=O)N=C(N)N)cc2c1c1c(F)cccc1n2C1CCOCC1 [Example 138] | ≤ 50 | – | significantly inhibited | –
9 | CC(C)n1c2cc(C(=O)N=C(N)N)ccc2c2c(Cl)cccc21 [Example 59] | ≤ 50 | – | – | inhibition of scopolamine-induced spontaneous alternation behavior disorder ([1]; oral, dose 0.03 mg/kg): significantly inhibited
10 | N/C(=N\C(=O)c1ccc2c3ccccc3n(C3CCOCC3)c2c1)NCC1CC1 [Example 178] | ≤ 50 | – | significantly inhibited | –
11 | COc1cc2c(cc1OC)C(=O)C(CC1CCN(Cc3ccccc3)CC1)C2 (stereo not shown) [donepezil, reference compound] | – | – | – | inhibition of scopolamine-induced spontaneous alternation behavior disorder ([1]; dose 0.25 mg/kg): significantly inhibited
12 | NC(N)=NC(=O)c1cc(F)c2c3c(F)cccc3n(C3CCOCC3)c2c1 [Example 146] | ≤ 50 | – | significantly inhibited | –

— US20100324017A1, “ACYLGUANIDINE DERIVATIVE” (priority 2007, published 2010)
